Assay results: the NIST ThermoML archive (doi:10.1021/acs.jced.7b00654)

Assay: xn = mol fraction of the nth substance listed
Settings: 96.7 kPa, Liquid, Vibrating tube method

CCCCn1cc[n+](C)c1.[Cl-] [1-butyl-3-methylimidazolium chloride] + CC(=O)N(C)C
mass density [kg/m3]
Settings | x1 = 0.177 | x1 = 0.332 | x1 = 0.428 | x1 = 0.538 | x1 = 0.664 | x1 = 0.816 | x1 = 0.904 | x1 = 1
303.15 K | 980.28 | 1010.24 | 1025.06 | 1038.52 | 1052.4 | 1066.29 | 1073.17 | 1079.41
308.15 K | 976.2 | 1006.61 | 1021.6 | 1035.1 | 1049.19 | 1063.28 | 1070.28 | 1076.58
313.15 K | 972.2 | 1002.98 | 1018.15 | 1031.7 | 1045.95 | 1060.2 | 1067.41 | 1073.78
318.15 K | 968.23 | 999.36 | 1014.71 | 1028.35 | 1042.78 | 1057.21 | 1064.54 | 1070.99
323.15 K | 964.27 | 995.75 | 1011.28 | 1024.85 | 1039.56 | 1054.27 | 1061.66 | 1068.19
328.15 K | 960.32 | 992.15 | 1007.86 | 1021.56 | 1036.44 | 1051.33 | 1058.85 | 1065.36
333.15 K | 956.38 | 988.55 | 1004.46 | 1018.33 | 1033.37 | 1048.41 | 1056.06 | 1062.6
338.15 K | 952.45 | 984.97 | 1001.06 | 1015.16 | 1030.34 | 1045.52 | 1053.26 | 1059.87
343.15 K | 948.53 | 981.38 | 997.67 | 1012.07 | 1027.37 | 1042.67 | 1050.47 | 1057.15
348.15 K | 944.61 | 977.8 | 994.29 | 1009.03 | 1024.45 | 1039.87 | 1047.69 | 1054.42
353.15 K | 940.67 | 974.22 | 990.92 | 1006.06 | 1021.59 | 1037.13 | 1044.91 | 1051.69

CCCCn1cc[n+](C)c1.[Cl-] [1-butyl-3-methylimidazolium chloride] + CN(C)C=O
mass density [kg/m3]
Settings | x1 = 0.151 | x1 = 0.295 | x1 = 0.385 | x1 = 0.493 | x1 = 0.626 | x1 = 0.79 | x1 = 0.887 | x1 = 1
303.15 K | 987.64 | 1016.34 | 1030.08 | 1043.12 | 1055.89 | 1067.73 | 1072.65 | 1079.41
308.15 K | 983.55 | 1012.63 | 1026.56 | 1039.78 | 1052.75 | 1064.72 | 1069.74 | 1076.58
313.15 K | 979.45 | 1008.93 | 1023.05 | 1036.46 | 1049.6 | 1061.75 | 1066.84 | 1073.78
318.15 K | 975.35 | 1005.24 | 1019.54 | 1033.15 | 1046.6 | 1058.83 | 1063.95 | 1070.99
323.15 K | 971.26 | 1001.56 | 1016.05 | 1029.85 | 1043.35 | 1055.91 | 1060.97 | 1068.19
328.15 K | 967.16 | 997.89 | 1012.57 | 1026.56 | 1040.24 | 1052.99 | 1058.13 | 1065.36
333.15 K | 963.07 | 994.21 | 1009.1 | 1023.29 | 1037.16 | 1050.07 | 1055.31 | 1062.6
338.15 K | 958.97 | 990.55 | 1005.66 | 1020.03 | 1034.08 | 1047.16 | 1052.48 | 1059.87
343.15 K | 954.87 | 986.89 | 1002.24 | 1016.78 | 1031.03 | 1044.26 | 1049.67 | 1057.15
348.15 K | 950.78 | 983.24 | 998.82 | 1013.55 | 1027.98 | 1041.39 | 1046.88 | 1054.42
353.15 K | 946.68 | 979.59 | 995.4 | 1010.33 | 1024.94 | 1038.53 | 1044.11 | 1051.69

CCCCn1cc[n+](C)c1.[Cl-] [1-butyl-3-methylimidazolium chloride] + C[S+](C)[O-]
mass density [kg/m3]
Settings | x1 = 0.161 | x1 = 0.309 | x1 = 0.401 | x1 = 0.509 | x1 = 0.641 | x1 = 0.801 | x1 = 0.894 | x1 = 1
303.15 K | 1090.42 | 1093.72 | 1092.13 | 1089.44 | 1086.22 | 1083.66 | 1081.72 | 1079.41
308.15 K | 1086.85 | 1089.98 | 1088.58 | 1086.09 | 1082.96 | 1080.69 | 1078.88 | 1076.58
313.15 K | 1083.14 | 1086.25 | 1085.04 | 1082.74 | 1079.73 | 1077.69 | 1075.99 | 1073.78
318.15 K | 1079.58 | 1082.54 | 1081.51 | 1079.35 | 1076.52 | 1074.71 | 1073.12 | 1070.99
323.15 K | 1075.76 | 1078.83 | 1078 | 1076.05 | 1073.33 | 1071.78 | 1070.22 | 1068.19
328.15 K | 1072.19 | 1075.14 | 1074.5 | 1072.7 | 1070.18 | 1068.87 | 1067.39 | 1065.36
333.15 K | 1068.87 | 1071.45 | 1071.01 | 1069.47 | 1067.09 | 1065.95 | 1064.59 | 1062.6
338.15 K | 1065.13 | 1067.76 | 1067.54 | 1066.13 | 1064.06 | 1063.04 | 1061.79 | 1059.87
343.15 K | 1061.44 | 1064.1 | 1064.07 | 1062.88 | 1061.11 | 1060.14 | 1058.99 | 1057.15
348.15 K | 1057.69 | 1060.44 | 1060.63 | 1059.65 | 1058.17 | 1057.25 | 1056.19 | 1054.42
353.15 K | 1053.72 | 1056.79 | 1057.19 | 1056.42 | 1055.25 | 1054.38 | 1053.41 | 1051.69

c1ccncc1 [pyridine] + CCCCn1cc[n+](C)c1.[Cl-]
mass density [kg/m3]
Settings | x2 = 0 | x2 = 0.163 | x2 = 0.313 | x2 = 0.404 | x2 = 0.514 | x2 = 0.644 | x2 = 0.803 | x2 = 0.895
303.15 K | 973.09 | 1013.2 | 1035.67 | 1045.6 | 1054.49 | 1063.34 | 1072.41 | 1075.89
308.15 K | 968.06 | 1009.09 | 1032.05 | 1042.19 | 1051.2 | 1060.26 | 1069.51 | 1073.02
313.15 K | 963.02 | 1004.97 | 1028.43 | 1038.78 | 1047.94 | 1057.18 | 1066.59 | 1070.16
318.15 K | 957.97 | 1000.85 | 1024.82 | 1035.39 | 1044.72 | 1054.11 | 1063.66 | 1067.3
323.15 K | 952.9 | 996.73 | 1021.21 | 1032.01 | 1041.52 | 1051.04 | 1060.72 | 1064.45
328.15 K | 947.82 | 992.6 | 1017.6 | 1028.63 | 1038.33 | 1047.99 | 1057.81 | 1061.65
333.15 K | 942.72 | 988.47 | 1014 | 1025.25 | 1035.14 | 1044.96 | 1054.92 | 1058.86
338.15 K | 937.6 | 984.34 | 1010.4 | 1021.89 | 1031.93 | 1041.94 | 1052.08 | 1056.09
343.15 K | 932.46 | 980.21 | 1006.81 | 1018.53 | 1028.66 | 1038.93 | 1049.29 | 1053.31
348.15 K | 927.3 | 976.06 | 1003.22 | 1015.17 | 1025.27 | 1035.92 | 1046.57 | 1050.53
353.15 K | 922.12 | 971.91 | 999.63 | 1011.79 | 1021.81 | 1032.89 | 1044.02 | 1047.77
